Assay results reported in the supplement of paper PMC6965134.
± gives the standard deviation of the averaged measurements.

Experiment: TIMS collisional cross section (CCS, N2) of the lipid ion; higher = larger ion cross section
Conditions: ionization mode: positive, one isomer drawn

Structure (SMILES)	TIMS collisional cross section (sample type: HeLa)	TIMS collisional cross section (sample type: Liver)	TIMS collisional cross section (sample type: plasma)
CCCCCCCCCCCCCC(=O)OC[C@@H](COC(=O)CCCCCCCCCCC)OC(=O)CCCCCCCCCCC [TG 12:0_12:0_14:0] (ion (formula + adduct): [C41H78O6+NH4] 1+)	283 Å²	281.3 ± 0.57 Å²	282.9 Å²
CCCC/C=C\CCCCCCCC(=O)OC[C@@H](COC(=O)CCCCCCCCCCC)OC(=O)CCCCCCCCCCC [TG 12:0_12:0_14:1] (ion (formula + adduct): [C41H76O6+NH4] 1+)	–	–	278.9 Å²
CCCCC/C=C\CCCCCCCC(=O)OC[C@@H](COC(=O)CCCCCCCCCCC)OC(=O)CCCCCCCCCCC [TG 12:0_12:0_15:1] (ion (formula + adduct): [C42H78O6+NH4] 1+)	–	280.4 Å²	–
CCCCCCCCCCCCCCCC(=O)OC[C@@H](COC(=O)CCCCCCCCCCC)OC(=O)CCCCCCCCCCC [TG 12:0_12:0_16:0] (ion (formula + adduct): [C43H82O6+NH4] 1+)	288 Å²	–	–
CCCCCC/C=C\CCCCCCCC(=O)OC[C@@H](COC(=O)CCCCCCCCCCC)OC(=O)CCCCCCCCCCC [TG 12:0_12:0_16:1] (ion (formula + adduct): [C43H80O6+NH4] 1+)	–	284.2 Å²	284.1 Å²
CCCCCCCC/C=C\CCCCCCCC(=O)OC[C@@H](COC(=O)CCCCCCCCCCC)OC(=O)CCCCCCCCCCC [TG 12:0_12:0_18:1] (ion (formula + adduct): [C45H84O6+NH4] 1+)	–	291.3 Å²	–
CCCCCCCCCCCCC(=O)OC[C@@H](COC(=O)CCCCCCCCCCC)OC(=O)CCCCCCCCCCCC [TG 12:0_13:0_13:0] (ion (formula + adduct): [C41H78O6+NH4] 1+)	–	282.7 Å²	–
CCCCCCCCCCCCCC(=O)OC[C@@H](COC(=O)CCCCCCCCCCC)OC(=O)CCCCCCCCCCCCC [TG 12:0_14:0_14:0] (ion (formula + adduct): [C43H82O6+NH4] 1+)	289 Å²	289.1 Å²	289.1 Å²
CCCCCCCCCCCCCCC(=O)OC[C@@H](COC(=O)CCCCCCCCCCC)OC(=O)CCCCCCCCCCCCC [TG 12:0_14:0_15:0] (ion (formula + adduct): [C44H84O6+NH4] 1+)	291.9 Å²	–	–
CCCCC/C=C\CCCCCCCC(=O)OC[C@@H](COC(=O)CCCCCCCCCCC)OC(=O)CCCCCCCCCCCCC [TG 12:0_14:0_15:1] (ion (formula + adduct): [C44H82O6+NH4] 1+)	289.5 Å²	–	–
CCCCCCCCCCCCCCCC(=O)OC[C@@H](COC(=O)CCCCCCCCCCC)OC(=O)CCCCCCCCCCCCC [TG 12:0_14:0_16:0] (ion (formula + adduct): [C45H86O6+NH4] 1+)	294.93 ± 0.32 Å²	295.2 ± 0.42 Å²	295.5 Å²
CCCCCC/C=C\CCCCCCCC(=O)OC[C@@H](COC(=O)CCCCCCCCCCC)OC(=O)CCCCCCCCCCCCC [TG 12:0_14:0_16:1] (ion (formula + adduct): [C45H84O6+NH4] 1+)	292.8 Å²	–	–
CCCCCCCC/C=C\CCCCCCCC(=O)OC[C@@H](COC(=O)CCCCCCCCCCC)OC(=O)CCCCCCCCCCCCC [TG 12:0_14:0_18:1] (ion (formula + adduct): [C47H88O6+NH4] 1+)	–	–	298.9 Å²
CCCCC/C=C\C/C=C\CCCCCCCC(=O)OC[C@@H](COC(=O)CCCCCCCCCCC)OC(=O)CCCCCCCCCCCCC [TG 12:0_14:0_18:2] (ion (formula + adduct): [C47H86O6+NH4] 1+)	–	295.4 Å²	295.8 Å²
CCCC/C=C\CCCCCCCC(=O)O[C@H](COC(=O)CCCCCCCCCCC)COC(=O)CCCCCCCCCCCCCCC [TG 12:0_14:1_16:0] (ion (formula + adduct): [C45H84O6+NH4] 1+)	–	–	291.9 Å²
CCCC/C=C\CCCCCCCC(=O)O[C@@H](COC(=O)CCCCCCC/C=C\CCCCCC)COC(=O)CCCCCCCCCCC [TG 12:0_14:1_16:1] (ion (formula + adduct): [C45H82O6+NH4] 1+)	290.3 Å²	–	–
CCCC/C=C\CCCCCCCC(=O)O[C@@H](COC(=O)CCCCCCC/C=C\C/C=C\CCCCC)COC(=O)CCCCCCCCCCC [TG 12:0_14:1_18:2] (ion (formula + adduct): [C47H84O6+NH4] 1+)	–	–	293.8 Å²
CCCCCCCCCCCCCCCCC(=O)OC[C@@H](COC(=O)CCCCCCCCCCC)OC(=O)CCCCCCCCCCCCCC [TG 12:0_15:0_17:0] (ion (formula + adduct): [C47H90O6+NH4] 1+)	–	–	302.1 Å²
CCCCCC/C=C\CCCCCCCC(=O)OC[C@@H](COC(=O)CCCCCCCCCCC)OC(=O)CCCCCCCCCCCCCCC [TG 12:0_16:0_16:1] (ion (formula + adduct): [C47H88O6+NH4] 1+)	–	299.2 Å²	–

Structure (SMILES)	TIMS collisional cross section (sample type: HeLa)	TIMS collisional cross section (sample type: Liver)	TIMS collisional cross section (sample type: plasma)
CCCCCCCCCCCCCCCCC(=O)OC[C@@H](COC(=O)CCCCCCCCCCC)OC(=O)CCCCCCCCCCCCCCC [TG 12:0_16:0_17:0] (ion (formula + adduct): [C48H92O6+NH4] 1+)	–	304.5 Å²	–
CCCCCCCC/C=C\CCCCCCCC(=O)OC[C@@H](COC(=O)CCCCCCCCCCC)OC(=O)CCCCCCCCCCCCCCC [TG 12:0_16:0_18:1] (ion (formula + adduct): [C49H92O6+NH4] 1+)	305.7 Å²	–	–
CCCCC/C=C\C/C=C\C/C=C\C/C=C\CCCC(=O)OC[C@@H](COC(=O)CCCCCCCCCCC)OC(=O)CCCCCCCCCCCCCCC [TG 12:0_16:0_20:4] (ion (formula + adduct): [C51H90O6+NH4] 1+)	–	–	307.4 Å²
CC/C=C\C/C=C\C/C=C\C/C=C\C/C=C\C/C=C\CCC(=O)OC[C@@H](COC(=O)CCCCCCCCCCC)OC(=O)CCCCCCCCCCCCCCC [TG 12:0_16:0_22:6] (ion (formula + adduct): [C53H90O6+NH4] 1+)	–	307.6 Å²	–
CCCCCC/C=C\CCCCCCCC(=O)O[C@H](COC(=O)CCCCCCCCCCC)COC(=O)CCCCCCCCCCCCCCCC [TG 12:0_16:1_17:0] (ion (formula + adduct): [C48H90O6+NH4] 1+)	–	303 Å²	–
CCCCCC/C=C\CCCCCCCC(=O)O[C@@H](COC(=O)CCCCCCC/C=C\CCCCCCCC)COC(=O)CCCCCCCCCCC [TG 12:0_16:1_18:1] (ion (formula + adduct): [C49H90O6+NH4] 1+)	–	–	303.25 ± 0.35 Å²
CCCCC/C=C\C/C=C\CCCCCCCC(=O)OC[C@@H](COC(=O)CCCCCCCCCCC)OC(=O)CCCCCCC/C=C\CCCCCC [TG 12:0_16:1_18:2] (ion (formula + adduct): [C49H88O6+NH4] 1+)	–	301.1 Å²	–
CCCCCCCCCCCCCCCC(=O)OC[C@@H](COC(=O)CCCCCCCCCCCC)OC(=O)CCCCCCCCCCCC [TG 13:0_13:0_16:0] (ion (formula + adduct): [C45H86O6+NH4] 1+)	295.3 Å²	–	–
CCCCCCCCCCCCCC(=O)OC[C@@H](COC(=O)CCCCCCCCCCCC)OC(=O)CCCCCCCCCCCCC [TG 13:0_14:0_14:0] (ion (formula + adduct): [C44H84O6+NH4] 1+)	–	–	292.3 Å²
CCCCCCCCCCCCCCCC(=O)OC[C@@H](COC(=O)CCCCCCCCCCCC)OC(=O)CCCCCCCCCCCCC [TG 13:0_14:0_16:0] (ion (formula + adduct): [C46H88O6+NH4] 1+)	298.2 Å²	298.5 Å²	298.4 ± 0.14 Å²
CCCCCC/C=C\CCCCCCCC(=O)OC[C@@H](COC(=O)CCCCCCCCCCCC)OC(=O)CCCCCCCCCCCCC [TG 13:0_14:0_16:1] (ion (formula + adduct): [C46H86O6+NH4] 1+)	296.4 Å²	296 Å²	296.1 Å²
CCCCCCCCCCCCCCCCC(=O)OC[C@@H](COC(=O)CCCCCCCCCCCC)OC(=O)CCCCCCCCCCCCC [TG 13:0_14:0_17:0] (ion (formula + adduct): [C47H90O6+NH4] 1+)	–	301.8 Å²	–
CCCCCCCC/C=C\CCCCCCCC(=O)OC[C@@H](COC(=O)CCCCCCCCCCCC)OC(=O)CCCCCCCCCCCCC [TG 13:0_14:0_18:1] (ion (formula + adduct): [C48H90O6+NH4] 1+)	–	303.1 Å²	–
CC/C=C\C/C=C\C/C=C\C/C=C\C/C=C\C/C=C\CCC(=O)OC[C@@H](COC(=O)CCCCCCCCCCCC)OC(=O)CCCCCCCCCCCCC [TG 13:0_14:0_22:6] (ion (formula + adduct): [C52H88O6+NH4] 1+)	–	305.2 Å²	–
CCCC/C=C\CCCCCCCC(=O)O[C@@H](COC(=O)CCCCCCC/C=C\CCCCCC)COC(=O)CCCCCCCCCCCC [TG 13:0_14:1_16:1] (ion (formula + adduct): [C46H84O6+NH4] 1+)	293.9 Å²	291.9 Å²	–
CCCCCCCCCCCCCCCC(=O)OC[C@@H](COC(=O)CCCCCCCCCCCC)OC(=O)CCCCCCCCCCCCCC [TG 13:0_15:0_16:0] (ion (formula + adduct): [C47H90O6+NH4] 1+)	301.7 Å²	301.4 Å²	–
CCCCCC/C=C\CCCCCCCC(=O)OC[C@@H](COC(=O)CCCCCCCCCCCC)OC(=O)CCCCCCCCCCCCCC [TG 13:0_15:0_16:1] (ion (formula + adduct): [C47H88O6+NH4] 1+)	299.7 Å²	299.6 Å²	–
CCCCCCCCCCCCCCCC(=O)OC[C@@H](COC(=O)CCCCCCCCCCCC)OC(=O)CCCCCCCCCCCCCCC [TG 13:0_16:0_16:0] (ion (formula + adduct): [C48H92O6+NH4] 1+)	305 Å²	–	–
